Consider 1 molecule from article PMC9227536, “Prediction of Pharmacokinetics of IDP-73152 in Humans Using Physiologically-Based Pharmacokinetics” (Pharmaceutics, 2022).

Data set [1] in a line: Unbound fraction in hepatocyte incubation, rat. The data set is classed as in vitro ADME. As to conditions: hepatocytes (hepatocyte incubation mixture), rats hepatocyte incubation, read-out: fu,hep. The procedure: The unbound fractions of IDP-73152 in various matrices were measured according to the manufacturer’s instructions for the rapid equilibrium dialysis (RED) device (ThermoFisher Scientific, Waltham, MA, USA). Briefly, IDP-73152 was added to the plasma or the microsomal/hepatocyte incubation buffer from various species (i.e., mouse, rat, dog, and human for microsomal incubation; rat for hepatocyte incubation) to obtain final concentrations of the compound at 0.3, 1, and 3 μM. After the membrane insert was placed in the RED plate, the solution containing IDP-73152 was added (400 µL) to the sample chamber, and the dialysis buffer (600 μL) was added to the buffer chamber. The RED plate was sealed with parafilm and then incubated at 37 °C in the orbital shaker (Lab Companion, Daejeon, Korea) at 100 rpm for 5 h. After a 50 μL aliquot was aspirated from both the sample and buffer chambers, an equal volume of protein-free buffer or blank medium was replaced in the aspirated sample or buffer to render the matrices compositionally identical. The IDP-73152 concentration in the buffer/sample chambers (i.e., CBuffer Chamber and CSample Chamber) was determined by an assay. Thus, the fraction unbound was defined as:(2) % Fraction unbound=(CBuffer Chamber/CSample Chamber)×100%

The nature of data set [2]: PBPK model prediction, dogs. The text has this: In this study, the PBPK model involving ten tissues (i.e., adipose tissue, brain, heart, kidney, liver, lung, muscle, skin, spleen, and testis (Figure 2; see Appendix A for detailed mathematical descriptions)) was considered to be applicable for the description of IDP-73152 PK in rats, mice, dogs, and humans. Physiological variables were obtained from the literature; they are summarized in Supplementary Table S1.
For the estimation of the volume of the distribution of IDP-73512 in rats, the steady-state volume of distribution (Vss) was calculated using the following equation [30]:(10) Vss=VP+Vrbc×EP+∑VT,i×KP,ss,i, where Vp, Vrbc, and VT,i are the volumes of plasma, red blood cells, and tissues, respectively. The erythrocyte-to-plasma partition coefficient (EP), is calculated by EP=1+(BP−1)/Hematocrit . The KP,ss for each tissue obtained from Equation (8) was applied for Equation (10). For the case of non-eliminating organs, the KP,ss was regarded as the tissue-to-plasma partition coefficient (KP) in PBPK equations (Appendix A). For the case of the liver—i.e., the eliminating organ—the KP,ss (KP,ss,LI) had to be corrected to account for the equilibrium being altered by the elimination. Thus, a PBPK-operative KP for liver (KP,LI) was calculated using the following equation [31]:(11) KP,LI=KP,ss,LI/(1−ER), where ER is the hepatic extraction ratio of the compound (i.e., CLh/(QLI·BP)). In this study, a compartmental absorption and transit (CAT) model consisting of stomach and five intestinal segments was considered for the description of the intestinal absorption kinetics of IDP-73152 in animals and humans. We assumed that the initial compartment denoted the stomach (Equation (12)), and the subsequent three compartments represented the small intestine and two additional compartments for the large intestine (i.e., a total of six compartments, with absorption occurring in the five intestinal compartments) (Equation (13)). The differential equations describing the rate of drug absorption and transit in the gastrointestinal tract can be written as:
For the intestine, viz. i = 1~5:(13) dMi/dt=Kt,i−1×Mi−1−(Kt,i+ka,i)×Mi, where Ms is the amount of drug in the stomach; Mi is the amount of drug in the i-th intestinal segment; Ks, Kt,i, and ka,i are the rate constants of gastric emptying, intestinal transit, and the segmental absorption rate, respectively. In Equation (13) at i = 1, Kt,0 and M0 represent Ks and Ms, respectively. […] The absorption rate constant in the intestinal segments in humans, ka,i,human, was assumed to be identical along the segments and calculated as follows: first, Peff was empirically estimated from the Caco-2 cell permeability (Papp):(14) LogPeff=0.4926×LogPapp−0.1454 […]

With `CC(C)(C)[C@H](NC(=O)[C@H](CC1CCCC1)CN(O)C=O)C(=O)N1CCC(NCc2cc(F)c(F)cc2F)CC1` [IDP-73152], the fraction unbound at 5 h in data set [1] amounted to 0.492 ± 0.068. For the same molecule, the figures for the AUC ratio in data set [2] (intravenous 10 mg/kg) and in data set [2] (oral 20 mg/kg) were 1.13 and 1.08, respectively. Also, the “Cmax ratio without the scaling (SF)” value in data set [2] (oral) was 0.760. Moreover, the Cmax ratio in data set [2] (oral 20 mg/kg) is on record as 0.832.
